Converted amounts (≈) assume the structure as drawn.
Experiments:
[1] = system: primary human hepatocytes; test: Hepatotoxicity (WST-1); format: cell-based; settings: at 32 μg/ml, 24 h
Protocol: Hepatotoxicity. Cryopreserved primary human hepatocytes were purchased from Cell Resource Core at Massachusetts General Hospital (Boston, Mass., USA). The hepatocytes were cultured in collagen sandwiched configuration in 24-well plates, as described previously (See, e.g., Dunn, J. C., et al. Hepatocyte function and extracellular matrix geometry: long-term culture in a sandwich configuration. FASEB J. 3, 174-177 (1989); Dunn, J. C., et al. Hepatocytes in collagen sandwich: evidence for transcriptional and translational regulation. J. Cell Biol. 116, 1043-1053 (1992); and Sharma, N. S. et al. Metabolic profiling based quantitative evaluation of hepatocellular metabolism in presence of adipocyte derived extracellular matrix. PLoS ONE 6, e20137 (2011)). Briefly, 0.4×10^6 live cells were seeded in 24-well plates coated with rat tail collagen type I. In order for cells to attach onto collagen gel, the 24-well plates were incubated in a humidified 5% CO2 incubator at 37° C. for 4 hours. The cells were washed and then cultured in 0.5 ml standard hepatocyte culture medium consisting of pre-warmed DMEM media supplemented with 10% FBS, 0.5 U/ml insulin, 14 ng/ml glucagon, 20 ng/ml EGF, 7.5 μg/ml hydrocortisone and 200 U/ml penicillin-streptomycin. The cell cultures were incubated in a humidified 5% CO2 incubator at 37° C. At 24 h after seeding, a top layer of collagen gel was deposited on the hepatocytes attached to the bottom collagen layer and incubated for another 24 h, then the hepatocytes were treated with a range of concentrations of retinoids for 24 h. […] WST-1 reduction was measured at absorbance 450 nm. The percent […] relative to that of the no-treatment control was calculated. […]
0.4×10^6 primary human hepatocytes cultured in a collagen gel sandwich system were treated with a range of concentration of the synthetic retinoids for 24 h. Cell viability was calculated based on the absorbance readings at 450 nm at 4 h after adding WST-1 using the following equation: % viability=(Abssample−Absblank)/(Absnon-treated−Absblank)×100. […]

hERG potassium channel = biological target: T1, hERG potassium channel (Homo sapiens, UniProt Q12809); test: hERG potassium channel inhibition (IonWorks HT, CHO cells); format: cell-based; settings: at 25 μM
T1 construct: host or cells: Chinese hamster ovary (CHO) cells
T1 sequence (Q12809 whole entry): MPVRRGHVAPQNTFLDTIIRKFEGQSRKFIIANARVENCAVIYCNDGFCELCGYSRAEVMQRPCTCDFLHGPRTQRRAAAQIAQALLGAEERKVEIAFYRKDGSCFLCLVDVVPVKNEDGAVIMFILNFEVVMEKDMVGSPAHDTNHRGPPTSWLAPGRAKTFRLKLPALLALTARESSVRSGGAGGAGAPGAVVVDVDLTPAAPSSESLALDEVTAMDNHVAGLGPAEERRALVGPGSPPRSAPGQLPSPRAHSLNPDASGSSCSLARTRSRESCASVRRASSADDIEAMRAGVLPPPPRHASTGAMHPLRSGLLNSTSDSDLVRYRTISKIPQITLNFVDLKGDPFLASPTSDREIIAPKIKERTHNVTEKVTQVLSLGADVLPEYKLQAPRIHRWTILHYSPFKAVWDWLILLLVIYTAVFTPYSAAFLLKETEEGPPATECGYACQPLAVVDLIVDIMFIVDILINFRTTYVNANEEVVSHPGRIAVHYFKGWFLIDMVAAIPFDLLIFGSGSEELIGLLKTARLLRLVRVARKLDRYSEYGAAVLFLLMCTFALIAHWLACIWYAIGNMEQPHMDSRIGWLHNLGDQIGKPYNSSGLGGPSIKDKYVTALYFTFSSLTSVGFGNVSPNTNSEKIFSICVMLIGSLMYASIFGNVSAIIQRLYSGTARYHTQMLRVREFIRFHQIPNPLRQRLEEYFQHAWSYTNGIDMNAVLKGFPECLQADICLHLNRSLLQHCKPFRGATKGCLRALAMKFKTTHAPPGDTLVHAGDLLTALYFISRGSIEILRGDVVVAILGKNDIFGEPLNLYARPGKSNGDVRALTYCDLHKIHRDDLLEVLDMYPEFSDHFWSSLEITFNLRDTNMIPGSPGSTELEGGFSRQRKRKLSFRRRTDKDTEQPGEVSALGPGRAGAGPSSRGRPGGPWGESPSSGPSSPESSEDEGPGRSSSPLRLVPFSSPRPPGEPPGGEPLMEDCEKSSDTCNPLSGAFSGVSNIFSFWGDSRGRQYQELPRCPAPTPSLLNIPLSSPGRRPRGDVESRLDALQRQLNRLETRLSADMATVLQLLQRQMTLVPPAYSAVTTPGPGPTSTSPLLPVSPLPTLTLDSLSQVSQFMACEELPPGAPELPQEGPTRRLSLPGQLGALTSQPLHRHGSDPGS
Protocol: Evaluation of human ether-a-go-go-related gene (hERG) potassium channel inhibition potential. […] Electrophysiology measurement was conducted using an IonWorks™ HT instrument (Molecular Devices Corporation, Sunnyvale, Calif., USA) and 384-well planar PatChPlate™ (Molecular Devices Corporation). Briefly, Chinese hamster ovary (CHO) cells expressing the hERG potassium channel were dispensed into 384-well planar arrays, and hERG tail currents were measured by whole-cell voltage clamping. A range of concentrations (0.008 μM to 25 μM) of each retinoid were then added to the cells, and a second recording of the hERG current was made. The percent change in the hERG current was calculated.

E. aerogenes ATCC 13048 = test: MIC, broth microdilution; format: cell-based, Enterobacter aerogenes; settings: Klebsiella aerogenes, ATCC13048; E. aerogenes ATCC 13048; read-out: Minimum inhibitory concentration
Excerpt: (§1) Bacterial strains and growth conditions and persister isolation: methicillin-resistant S. aureus (MRSA) strain MW2 BAA-1707, vancomycin-resistant S. aureus strain VRS 1, 11 clinical S. aureus isolates, 8 clinical Enterococcus faecium isolates, Klebsiella pneumoniae WGLW2 (BEI Resources, Manassas, Va., USA), Acinetobacter baumannii ATCC 17978, Pseudomonas aeruginosa PA14, and Enterobacter aerogenes ATCC 13048 were used to test antimicrobial activity (See Table 1a). S. aureus and E. faecium strains were grown in tryptic soy broth (TSB) (BD, Franklin Lakes, N.J., USA) or brain-heart infusion (BHI) broth (BD, Franklin Lakes, N.J., USA), respectively at 37° C. at 225 rpm. K. pneumoniae, A. baumannii, P. aeruginosa, and E. aerogenes were grown in Luria Bertani (LB) broth (BD, Franklin Lakes, N.J., USA).
(§2) To test the bacterial MICs for compounds described herein, the total volume in each well was 100 μl of test compounds and bacterial cells in MH broth. […] The bacterial concentration was adjusted to an initial OD600 of 0.03. After incubation at 35° C. for 18 hrs, the absorbance was measured at 595 nm in accordance with CLSI document M07-A8. The MICs of antibiotics were determined by the standard microdilution method recommended by the Clinical and Laboratory Standards Institute.

[2] = Giant unilamellar vesicles (GUVs) disruption; settings: DOPC/DOPG 7:3; 1× and 10×MIC; result in words
K. pneumonia WGLW2 = test: MIC, broth microdilution; format: cell-based, Klebsiella pneumoniae; settings: Klebsiella pneumoniae; K. pneumonia WGLW2; read-out: Minimum inhibitory concentration
Excerpt: as §1, §2

human erythrocytes = test: Human blood hemolysis; format: cell-based; settings: increasing concentrations; result in words
Protocol: Human blood hemolysis. Hemolytic activity of retinoids on human erythrocytes was evaluated using a previously described method with modifications (Rajamuthiah, R. et al. A defensin from the model beetle Tribolium castaneum acts synergistically with telavancin and daptomycin against multidrug resistant Staphylococcus aureus. PLoS ONE 10, e0128576 (2015)). 10% human erythrocytes were purchased from Rockland Immunochemicals (Limerick, Pa., USA). The erythrocytes were diluted to 4% with PBS, and 100 μl was added to 100 μl of two-fold serial dilutions of compounds in PBS, 0.2% DMSO (negative control), or 2% Triton-X 100 (positive control) in a 96-well plate. The 96-well plate was incubated at 37° C. for 1 h and then centrifuged at 500×g for 5 min. 100 μl of the supernatant was transferred to a fresh 96-well plate, and absorbance of supernatants was measured at 540 nm. Percent hemolysis was calculated using the following equation: (A540 nm of compound treated sample—A540nm of 0.1% DMSO treated sample)/(A540 nm of 1% Triton X-100 treated sample—A540nm of 0.1% DMSO treated sample)×100. HC50 (concentration of a compound causing 50% hemolysis) was determined using SigmaPlot 10.0 (Systat Software Inc., San Jose, Calif., USA).
In a 96 well plate, 50 μl of 2% human erythrocytes suspended in PBS was added to 50 μl of compounds serially diluted in PBS and incubated at 37° C. for 1 hour. The plate was then centrifuged at 500 G for 5 minutes and 50 μl of the supernatant from each well of the assay plate was transferred to a fresh 96 well plate. Hemolysis was confirmed by both visual observation and measuring absorbance at 540 nm. Treatment was conducted in triplicate.
2% human erythrocytes were treated with two-fold serially diluted concentration of the retinoids for 1 h at 37° C. A sample treated with 1% Triton-X 100 was used as the control for 100% hemolysis. Results are shown as means±s.d.; n=3.

E. faecalis = test: MIC, broth microdilution; format: cell-based, Enterococcus faecalis; settings: for MIC: Enterococcus faecalis, E. faecalis, (range given for E. faecium and E. faecalis); for susceptibility of E. faecalis: result in words
Protocol: To test the bacterial MICs for compounds described herein, the total volume in each well was 100 μl of test compounds and bacterial cells in MH broth. Two-fold serial dilutions were carried out to get compounds in the concentration range 0.0625-64 μg/ml. The bacterial concentration was adjusted to an initial OD600 of 0.03. After incubation at 35° C. for 18 hrs, the absorbance was measured at 595 nm in accordance with CLSI document M07-A8. The MICs of antibiotics were determined by the standard microdilution method recommended by the Clinical and Laboratory Standards Institute.

Row | Compound | toxicity to primary human hepatocytes [1] | inhibition of hERG potassium channels (hERG potassium channel) | MIC (E. aerogenes ATCC 13048) [µg/mL] | integrity of giant unilamellar vesicles (GUVs) [2] | MIC (K. pneumonia WGLW2) [µg/mL] | toxicity (hemolysis) to erythrocytes (human erythrocytes) | MIC (E. faecalis) [µg/mL] | susceptibility of E. faecalis (E. faecalis)
1 | O=C(O)/C=C/c1ccc(-c2ccc(O)c(C34CC5CC(CC(C5)C3)C4)c2)cc1 [Adarotene, (2E)-3-(4′-Hydroxy-3′-tricyclo[3.3.1.13,7]dec-1-yl[1,1′-biphenyl]-4-yl)-2-propenoic acid] | did not cause significant toxicity | did not inhibit | > 64 | disrupt the integrity | > 64 | not toxic | – | –
2 | O=C(O)c1ccc2cc(-c3ccc(O)c(C45CC6CC(CC(C6)C4)C5)c3)ccc2c1 [CD437, 6-(4-hydroxy-3-tricyclo[3.3.1.13,7]dec-1-ylphenyl)-2-naphthalenecarboxylic acid] | did not cause significant toxicity | – | > 64 | – | > 64 | – | 2 to 4 (≈ 5.02 to 10 µM) | susceptible
3 | O=C(O)c1ccc(-c2ccc3cc(O)c(C45CC6CC(CC(C6)C4)C5)cc3c2)cc1 [CD1530, 4-(6-hydroxy-7-tricyclo[3.3.1.13,7]dec-1-yl-2-naphthalenyl)-benzoic acid] | did not cause significant toxicity | did not inhibit | > 64 | disrupt the integrity | > 64 | not toxic | 2 to 4 (≈ 5.02 to 10 µM) | susceptible
